The subject of assay [1] is arterial blood pressure. Put plainly: Anesthetized rabbit experiments: arterial blood pressure and heart rate after infusion. Further: key: Inactive: No decrease or decrease less than 5%; Active: Decrease between 5 and 40%; Very Active: Decrease greater than 40%. The assay is classed as in vivo, New Zealand white rabbits. The method, then:
In the anesthetized rabbits, the decrease of arterial blood pressure and the effect on the heart rate after infusion of the test compounds was determined.
New Zealand white rabbits (2.5-3 kg) were anesthetized (30 mg×kg^-1 pentobarbitone, i.v., supplemental doses as needed). Tracheotomy was performed, and an intra-tracheal cannula was inserted. No artificial ventilation was applied and body temperature was maintained at 37°-38° C.
Left ventricular pressure (LVP) was measured (Millar Mikro-Tip catheter via the right carotid artery with transducer in the left ventricle). The LVP signal was differentiated electronically to obtain the rate of change of LVP (LV dP/dt). The heart rate (HR) was derived from the LVP pulse signal. The jugular vein was cannulated for infusion of the test compounds. Aortic blood pressure (SAP and DAP) was monitored (Gould-Statham pressure transducer) by inserting a polyethylene catheter filled with heparin (50 IU×ml^-1) through the femoral artery into the abdominal aorta. Heparin (150 IU×kg^-1, i.v.) was administered to prevent blood clotting.
After completion of surgical procedures, the rabbits were allowed to recover for 15 minutes before drug administration was started.
Drugs were infused at constant rate (0.5 ml×min^-1) for 10 minutes at various doses, resulting in a typical dose range of 2.0, 20.0 and 200 μg×kg^-1 ×min^-1 (2.5 kg rabbit).
Due to poor solubility, 1 mg×ml^-1 solutions of all the compounds tested were prepared in Intralipid® 10%, containing 10% (v/v) dimethyl sulfoxide (DMSO). […] At the infusion of lower doses, the 1 mg×ml^-1 stock solutions were diluted with Intralipid® 10%.
The presented data are based on the effects obtained at the end of the 10 min infusion period at the highest dose tested (150-200 μg×kg^-1 ×min^-1). The indicated ratings are referring to the effects (decrease, defined as percentage of basal value before infusion of the drug) on arterial blood pressure as follows: […]

Assay [2] has as its system contracted rat aorta. In words: In vitro rat aorta assay: relaxation of aorta strips contracted with phenylephrine. As to conditions: read-out: EC50 (mean): concentration at which residual contraction is 50% of maximum. The assay is classed as cell-based. The method, then:
Strips of thoracial rat aortae (without aortic arch, helically cut; length 1-1.5 cm; width about 2 mm) were place in an organ bath [20 ml; Krebs Ringer medium bubbled with O2 /CO2 (95/5%) at 37° C.]. A resting tension of 0.5 g was applied and the preparations were equilibrated during 100 min (fresh buffer solution every 20 min). The strips were isotonically contracted with 10^-7 M phenylephrine.
Drug-induced relaxation was tested at increasing concentration (half log steps), till maximal or full relaxation (corresponding to basal precontraction value of organ length) had been reached.
Responses were calculated as change in organ length relatively to maximal displacement by contraction, EC50 values corresponding to the drug concentration at which residual contraction is 50% of maximum.

The mark [3] stands for this setting: rat aorta strips contracted with 10^-7 M phenylephrine.
Setting [4] is: anesthetized rabbit, end of 10 min infusion at highest dose tested (150-200 μg×kg^-1×min^-1), decrease as percentage of basal value.

Structures can show the parent of a compound that is named as a salt. Where two headings read alike, the source gives them in different places.

Consider `O=C(O)C1CSC(c2cc([N+](=O)[O-])ccc2OCCO[N+](=O)[O-])N1` (centres unmarked) [Example XXI, 4-Carboxy-2-[5-nitro-2-(2-nitroxyethoxy)phenyl]thiazolidine], for which, in assay [1] (rabbit, in vivo), the “Activity with regard to the lowering of blood pressure” value (from here on “Activity with regard to the lowering”) is “Active”. The EC50 in assay [2] (Rattus norvegicus) turned out to be 25 nM.

As for `CCOc1cccc(C2NC(C(=O)O)CS2)c1OCCO[N+](=O)[O-]` (centres unmarked) [Example XII, 4-Carboxy-2-[3-ethoxy-2-(2-nitroxyethoxy)phenyl]thiazolidine], the EC50 in assay [2] (setting [3]) amounted to 650 nM.

With `O=C(NCCO[N+](=O)[O-])c1ccc(C2NC(C(=O)O)CS2)cc1` (centres unmarked) [Example V, 4-Carboxy-2-{4-[(2-nitroxyethyl)aminocarbonyl]phenyl}thiazolidine], the EC50 in assay [2] (setting [3]) was 330 nM.

Regarding `O=[N+]([O-])OCCOc1cccc(C2NCCS2)c1` (centres unmarked) [XIX, 2-[3-(2-Nitroxyethoxy)phenyl]thiazolidine×HCl], the EC50 in assay [2] (setting [3]) is 9.7 nM.

With `O=C(O)C1CSC(c2ccccc2OCCCCO[N+](=O)[O-])N1` (centres unmarked) [XXXIV, 4-Carboxy-2-[2-(4-nitroxybutoxy)phenyl]thiazolidine], the EC50 in assay [2] (setting [3]) came out at 17 nM.

For `CCOC(=O)[C@@H]1CSC(c2ccccc2OCCO[N+](=O)[O-])N1` (some centres unmarked) [XXVIII, 4-Ethoxycarbonyl-2-[2-(2-nitroxyethoxy)phenyl]thiazolidine 4-toluenesulphonate], in assay [1] (setting [4]), the “Activity with regard to the lowering” value is listed as “Active”. The EC50 in assay [2] (setting [3]) amounted to 9.4 nM.

On to `O=C(O)C1CSC(c2ccc(OCCO[N+](=O)[O-])cc2)N1` (centres unmarked) [Example XIII, 4-Carboxy-2-[4-(2-nitroxyethoxy)phenyl]thiazolidine], for which, in assay [1] (setting [4]), the “Activity with regard to the lowering” value is listed as “Active”. For the same compound, the EC50 in assay [2] (setting [3]) is 22 nM.

For “2-Butyl-5,5-dimethyl-N-(4-methylbenzenesulphonyl)-4-[(5-nitroxyisosorbide)carbonyl]thiazolidine [Example IV]”, the EC50 in assay [2] (setting [3]) came out at 9500 nM.

In the case of `COc1cc(C2NC(C(=O)O)CS2)ccc1OCC(=O)NCCO[N+](=O)[O-]` (centres unmarked) [Example X, 4-Carboxy-2{3-methoxy-4-[(2-nitroxyethyl)aminocarbonylmethoxy]phenyl}thiazolidine], in assay [2] (setting [3]), the EC50 is 390 nM.

As to `COc1cc(C2NC(C(=O)O)CS2)cc(Br)c1OCCO[N+](=O)[O-]` (centres unmarked) [XXIII, 2-[3-Bromo-5-methoxy-4-(2-nitroxyethoxy)phenyl]-4-carboxythiazolidine], the EC50 in assay [2] (setting [3]) is 820 nM.

On to `CC(=O)N1C(CCc2ccccc2)SCC1C(=O)OC[C@H]1CC[C@H](CO[N+](=O)[O-])CC1` (some centres unmarked) [Example XXII, N-acetyl-2-(2-phenylethyl)-4-[(4-nitroxymethylcyclohexyl)methoxycarbonyl]thiazolidine], for which the “Activity with regard to the lowering” value in assay [1] (setting [4]) was “Active”. In assay [2] (setting [3]), the EC50 is 23 nM.

Turning to `O=C(O)C1CSC(c2ccccc2OC[C@H]2CC[C@H](CO[N+](=O)[O-])CC2)N1` (relative stereo) [Example XXIX, 4-Carboxy-2-(2-{[4-nitroxymethyl-(trans)-cyclohexyl]methoxy}phenyl)thiazolidine], in assay [1] (setting [4]), the “Activity with regard to the lowering” value is “Active”. In addition, the EC50 in assay [2] (setting [3]) is 21 nM.

As to `COc1ccc(OCCO[N+](=O)[O-])c(C2NC(C(=O)O)CS2)c1` (centres unmarked) [Example XV, 4-Carboxy-2-[5-methoxy-2-(2-nitroxyethoxy)phenyl]thiazolidine], the “Activity with regard to the lowering” value in assay [1] (setting [4]) is recorded as “Active”. Also, the EC50 in assay [2] (setting [3]) was 7 nM.

`CCCCC1SCC(C(=O)OC2COC3C(O[N+](=O)[O-])COC23)N1S(=O)(=O)c1ccc(C)cc1` (centres unmarked) [Example I, 2-Butyl-N-(4-methylbenzenesulphonyl)-4-[(5-nitroxyisosorbide)carbonyl]thiazolidine]: the EC50 in assay [2] (setting [3]) was determined as 750 nM.

Take `CC(COc1ccccc1C1NC(C(=O)O)CS1)O[N+](=O)[O-]` (centres unmarked) [XXXVI, 4-Carboxy-2-[2-(2-nitroxypropoxy)phenyl]thiazolidine]: in assay [1] (setting [4]), the “Activity with regard to the lowering” value is “Active”. Also, the EC50 in assay [2] (setting [3]) came out at 48 nM.

As to “N-benzoyl-2-butyl-5,5-dimethyl-4-[(5-nitroxyisosorbide)carbonyl]thiazolidine [Example III]”, the “Activity with regard to the lowering” value in assay [1] (setting [4]) was “Active”. For the same compound, the EC50 in assay [2] (setting [3]) was 98 nM.

Turning to `O=C(O)C1CSC(c2ccccc2OCCO[N+](=O)[O-])N1` (centres unmarked) [Example XVI, 4-Carboxy-2-[2-(2-nitroxyethoxy)phenyl]thiazolidine], the “Activity with regard to the lowering” value in assay [1] (setting [4]) was “Active”.

Turning to `O=C(O)C1CSC(c2cc(Cl)ccc2OCCO[N+](=O)[O-])N1` (centres unmarked) [Example XXV, 4-Carboxy-2-[5-chloro-2-(2-nitroxyethoxy)phenyl]thiazolidine], the “Activity with regard to the lowering” value in assay [1] (setting [4]) is given as “Active”. The EC50 in assay [2] (setting [3]) is 20 nM.

On to `CCCCC1SCC(C(=O)OC2COC3C(O[N+](=O)[O-])COC23)N1C(=O)c1ccccc1` (centres unmarked) [Example II, N-benzoyl-4-[(5-nitroxyisosorbide)carbonyl]-2-butylthiazolidine], for which the EC50 in assay [2] (setting [3]) was 740 nM.

As for `CCOC(=O)C1CSC(c2ccc(OCC(=O)NCCO[N+](=O)[O-])c(OC)c2)N1` (centres unmarked) [Example XI, 4-Ethoxycarbonyl-2-{[3-methoxy-4-(2-nitroxyethyl)aminocarbonylmethoxy]phenyl}-thiazolidine hydrochloride], in assay [2] (setting [3]), the EC50 came out at 270 nM.

Turning to `O=C(COc1ccccc1C1NC(C(=O)O)CS1)NCCO[N+](=O)[O-]` (centres unmarked) [Example IX, 4-Carboxy-2-{2-[(2-nitroxyethyl)aminocarbonylmethoxyl]phenyl}thiazolidine], the EC50 in assay [2] (setting [3]) was 700 nM.

On to `O=C(COc1ccc(C2NC(C(=O)O)CS2)cc1)NCCO[N+](=O)[O-]` (centres unmarked) [Example XXIV, 4-Carboxy-2-{4-[(2-nitroxyethyl)aminocarbonylmethoxy]phenyl}thiazolidine], for which the EC50 in assay [2] (setting [3]) is 900 nM.

As for “4-Carboxy-2-[3-4-(2-nitroxyethoxy)phenyl]thiazolidine [Example XXXV]”, in assay [2] (setting [3]), the EC50 turned out to be 54 nM.

For `CC(=O)N1C(C(=O)NCCO[N+](=O)[O-])CSC1c1ccccc1` (centres unmarked) [Example VIII, N-acetyl-2-phenyl-4-[(2-nitroxyethyl)aminocarbonyl]thiazolidine], in assay [2] (setting [3]), the EC50 was determined as 1880 nM.

Regarding `CC1(C)SC(c2ccccc2OCCO[N+](=O)[O-])N[C@H]1C(=O)O` (some centres unmarked) [XXVI, 4-Carboxy-5,5-dimethyl-2-[(2-nitroxyethoxy)phenyl]thiazolidine], the “Activity with regard to the lowering” value in assay [1] (setting [4]) is listed as “Active”. Besides, the EC50 in assay [2] (setting [3]) came out at 57 nM.

Take `CC(C)(COc1ccccc1C1NC(C(=O)O)CS1)CO[N+](=O)[O-]` (centres unmarked) [Example XXX, 4-Carboxy-2-[2-(2,2-dimethyl-3-nitroxypropoxy)phenyl]thiazolidine]: the “Activity with regard to the lowering” value in assay [1] (setting [4]) is “Active”. Moreover, the EC50 in assay [2] (setting [3]) was found to be 102 nM.

As to `O=C(O)C1CSC(c2ccccc2OCCCO[N+](=O)[O-])N1` (centres unmarked) [Example XXXII, 4-Carboxy-2-[2-(3-nitroxypropoxy)phenyl]thiazolidine], the EC50 in assay [2] (setting [3]) was 37 nM.

`CCOC(=O)C1CSC(c2ccc(C(=O)NCCO[N+](=O)[O-])cc2)N1` (centres unmarked) [Example VII, 4-Ethoxycarbonyl-2-{4-[(2-nitroxyethyl)aminocarbonyl]phenyl}thiazolidine×HCl]: in assay [2] (setting [3]), the EC50 was found to be 20 nM.

`CC(=O)N1C(C(=O)O)CSC1c1ccccc1OCCO[N+](=O)[O-]` (centres unmarked) [Example XVII, N-acetyl-4-carboxy-2-[2-(2-nitroxyethoxy)phenyl]thiazolidine]: in assay [2] (setting [3]), the EC50 came out at 720 nM.

As to `CC(=O)N1C(C(=O)NCCO[N+](=O)[O-])CSC1c1ccccc1C(=O)O` (centres unmarked) [Example VI, N-acetyl-2-(2-carboxyphenyl)-4-[(2-nitroxyethyl)aminocarbonyl]thiazolidine], the EC50 in assay [2] (setting [3]) worked out at 1620 nM.

With `O=C(O)C1CSC(c2cccc(OCCO[N+](=O)[O-])c2)N1` (centres unmarked) [Example XVIII, 4-Carboxy-2-[3-(2-nitroxyethoxy)phenyl]thiazolidine], the EC50 in assay [2] (setting [3]) turned out to be 47 nM.

Regarding `CC(C)(CO[N+](=O)[O-])C(=O)N1C(C(=O)O)CSC1c1ccccc1` (centres unmarked) [XXXIII, 4-Carboxyl-N-(2,2-dimethyl-3-nitroxypropionyl)-2-phenylthiazolidine], in assay [2] (setting [3]), the EC50 stood at 2770 nM.

As to `COc1cccc(C2NC(C(=O)O)CS2)c1OCCO[N+](=O)[O-]` (centres unmarked) [Example XIV, 4-Carboxyl-2-[3-methoxy-2-(2-nitroxyethoxy)phenyl]thiazolidine], in assay [2] (setting [3]), the EC50 worked out at 230 nM.
